Experimental data taken from patent US20140050720A1, “ULTRALONG COMPLEMENTARITY DETERMINING REGIONS AND USES THEREOF” (THE SCRIPPS RESEARCH INSTITUTE, priority 2012, published 2014).

How the values were obtained:
Human mPB CD34+ cells = experiment: Proliferative activity on human granulocyte progenitors (flow cytometry); format: cell-based; settings: 7 days
Description: Human mPB CD34^+ cells were purchased from AllCells. Cells were resuspended in HSC expansion medium (StemSpan SFEM, StemCell Technologies) supplemented with 1× antibiotics and the following recombinant human cytokines thrombopoietin, IL6, Flt3 ligand, and stem cell factor (100 ng/mL, R & D Systems), then plated in 96-well plates (1000 cells per well), with varied concentrations of BLV1H12-bGCSF fusion antibodies. Cells were cultured for 7 days at 37° C. in a 5% CO2 incubator, then analyzed by flow cytometry to measure cell number and expression of CD45ra and CD41. Cells were stained in staining medium (HBSS supplemented with 2% FBS and 2 mM EDTA) at 4° C. for 1 h with PECy7 anti-CD45ra and eFluor 450 anti-CD41 (eBiosciences), then washed with staining medium and analyzed. Multicolor analysis for cell phenotyping was performed on a LSR II flow cytometer (Becton Dickinson). FIGS. 10A-10E and Tables 9-10 show the human granulocyte progenitor cell proliferative activities of the Ab-GCSF fusion antibodies.

mice neutrophils = experiment: Neutrophils counts in mice; format: in vivo; settings: mice blood, 10th day post-injection, neutrophils among white blood cells
Description: On the 10th day after injection of BLV1H12-bGCSF fusion antibodies into mice for PK study, blood samples were drawn from the mice and stained using the Diff Quick Staining Kit (Thermo Fisher Scientific, IL). Neutrophils and white blood cells were counted under microscope and the percentages of neutrophils were analyzed. FIGS. 12A-12B and Table 12 show proliferative activities of BLV1H12-bGCSF fusion antibodies on mice neutrophils that are blood stained and counted at the 10th day post-injection.

Mouse NFS-60 cells = experiment: Proliferation assay on mouse NFS-60 cells (AlamarBlue); format: cell-based; settings: 72 hours
Description: Mouse NFS-60 cells were obtained from American Type Culture Collection (ATCC), VA, and cultured in RPMI-1640 medium supplemented with 10% fetal bovine serum (FBS), 0.05 mM 2-mercapoethanol and 62 ng/ml human macrophage colony stimulating factor (M-CSF). For proliferation assay, mouse NFS-60 cells were washed three times with RPMI-1640 medium and resuspended in RPMI-1640 medium with 10% FBS and 0.05 mM 2-mercapoethanol at a density of 1.5×10^5 cells/ml. In 96-well plates, 100 μl of cell suspension was added into each well, followed by the addition of varied concentrations of bGCSF, BLV1H12 antibody, and the immunoglobulin constructs described herein, Equal volume of PBS buffer was added into the control wells. The plates were incubated at 37° C. in a 5% CO2 incubator for 72 hours. Cells were then treated with AlamarBlue (Invitrogen) ( 1/10 volume of cell suspension) for 4 hours at 37° C. Fluorescence at 595 nm for each well was read to indicate the cell viability.

[1] = Pharmacokinetics of BLV1H12-bGCSF fusion antibodies in mice; format: in vivo; settings: BALB/c mice, 70 μg injected
Description: For PK study in mice, 70 μg of the immunoglobulin constructs described herein were injected into 3 BALB/c mice per group. Blood samples were drawn from time 0 to 14 days with extended intervals and analyzed by ELISA using anti-human IgG Fc antibody with horseradish peroxidase (HRP) labeled (KPL) and anti-6×His antibody with HRP labeled (Clontech). Data were normalized by taking maximal concentration at the first time point (30 min).

Ab-bGCSF L0: bovine G-CSF replacing the knob domain of BLV1H12 CDR3H, no linker (n=0); DNA SEQ ID NO: 4
Number of CD45RA− CD41− (Human mPB CD34+ cells; 0.14225 ng/mL): 2601 | Number of CD45RA− CD41− (Human mPB CD34+ cells; 0.42676 ng/mL): 2253 | Number of CD45RA− CD41− (Human mPB CD34+ cells; 3.84088 ng/mL): 4399 | Number of CD45RA− CD41− (Human mPB CD34+ cells; 11.52263 ng/mL): 7262 | Number of CD45RA− CD41− (Human mPB CD34+ cells; 34.5679 ng/mL): 9902 | Number of CD45RA− CD41− (Human mPB CD34+ cells; 103.7037 ng/mL): 11500 | Number of CD45RA− CD41− (Human mPB CD34+ cells; 311.11111 ng/mL): 11500 | Number of CD45RA− CD41− (Human mPB CD34+ cells; 933.33333 ng/mL): 11900 | Number of CD45RA− CD41− (Human mPB CD34+ cells; 2800 ng/mL): 12100 | Percentage of Neutrophil (mice neutrophils): 25.05 | F.I. (AlamarBlue fluorescence at 595 nm, cell viability) (Mouse NFS-60 cells; 0.09876 ng/mL): 1328 | F.I. (AlamarBlue fluorescence at 595 nm, cell viability) (Mouse NFS-60 cells; 0.29627 ng/mL): 1436 | F.I. (AlamarBlue fluorescence at 595 nm, cell viability) (Mouse NFS-60 cells; 0.88881 ng/mL): 1734.765 | F.I. (AlamarBlue fluorescence at 595 nm, cell viability) (Mouse NFS-60 cells; 2.66642 ng/mL): 2189 | F.I. (AlamarBlue fluorescence at 595 nm, cell viability) (Mouse NFS-60 cells; 7.99927 ng/mL): 2680 | F.I. (AlamarBlue fluorescence at 595 nm, cell viability) (Mouse NFS-60 cells; 23.9978 ng/mL): 2899 | F.I. (AlamarBlue fluorescence at 595 nm, cell viability) (Mouse NFS-60 cells; 71.9934 ng/mL): 2921 | F.I. (AlamarBlue fluorescence at 595 nm, cell viability) (Mouse NFS-60 cells; 215.9802 ng/mL): 3416 | Percentage (normalized to maximal concentration at the first time point, 30 min) ([1]; day 0.021): 100.00% | Percentage (normalized to maximal concentration at the first time point, 30 min) ([1]; day 0.042): 91.12% | Percentage (normalized to maximal concentration at the first time point, 30 min) ([1]; day 0.083): 91.24% | Percentage (normalized to maximal concentration at the first time point, 30 min) ([1]; day 0.125): 91.56% | Percentage (normalized to maximal concentration at the first time point, 30 min) ([1]; day 0.250): 61.22% | Percentage (normalized to maximal concentration at the first time point, 30 min) ([1]; day 1.000): 44.22% | Percentage (normalized to maximal concentration at the first time point, 30 min) ([1]; day 2.000): 36.36% | Percentage (normalized to maximal concentration at the first time point, 30 min) ([1]; day 3.000): 27.38% | Percentage (normalized to maximal concentration at the first time point, 30 min) ([1]; day 8.000): 11.53% | Percentage (normalized to maximal concentration at the first time point, 30 min) ([1]; day 10.000): 12.44% | Percentage (normalized to maximal concentration at the first time point, 30 min) ([1]; day 14.000): 14.35%

Ab-bGCSF L1: bovine G-CSF replacing the knob domain of BLV1H12 CDR3H with GGGGS linkers on both ends; DNA SEQ ID NO: 5
Number of CD45RA− CD41− (Human mPB CD34+ cells; 0.30483 ng/mL): 4070 | Number of CD45RA− CD41− (Human mPB CD34+ cells; 0.91449 ng/mL): 3601 | Number of CD45RA− CD41− (Human mPB CD34+ cells; 2.74348 ng/mL): 4303 | Number of CD45RA− CD41− (Human mPB CD34+ cells; 8.23045 ng/mL): 6404 | Number of CD45RA− CD41− (Human mPB CD34+ cells; 24.69136 ng/mL): 9122 | Number of CD45RA− CD41− (Human mPB CD34+ cells; 74.07407 ng/mL): 11200 | Number of CD45RA− CD41− (Human mPB CD34+ cells; 222.22222 ng/mL): 11000 | Number of CD45RA− CD41− (Human mPB CD34+ cells; 666.66667 ng/mL): 11400 | Number of CD45RA− CD41− (Human mPB CD34+ cells; 2000 ng/mL): 11400 | Number of CD45RA− CD41− (Human mPB CD34+ cells; 6000 ng/mL): 13200 | Percentage of Neutrophil (mice neutrophils): 25.32 | F.I. (AlamarBlue fluorescence at 595 nm, cell viability) (Mouse NFS-60 cells; 0.09808 ng/mL): 1412.387 | F.I. (AlamarBlue fluorescence at 595 nm, cell viability) (Mouse NFS-60 cells; 0.29424 ng/mL): 1654.776 | F.I. (AlamarBlue fluorescence at 595 nm, cell viability) (Mouse NFS-60 cells; 0.88272 ng/mL): 2082.718 | F.I. (AlamarBlue fluorescence at 595 nm, cell viability) (Mouse NFS-60 cells; 2.64816 ng/mL): 2550.674 | F.I. (AlamarBlue fluorescence at 595 nm, cell viability) (Mouse NFS-60 cells; 7.94449 ng/mL): 2997.807 | F.I. (AlamarBlue fluorescence at 595 nm, cell viability) (Mouse NFS-60 cells; 23.83346 ng/mL): 3277.812 | F.I. (AlamarBlue fluorescence at 595 nm, cell viability) (Mouse NFS-60 cells; 71.50039 ng/mL): 3308.383 | F.I. (AlamarBlue fluorescence at 595 nm, cell viability) (Mouse NFS-60 cells; 214.50117 ng/mL): 3868.075 | Percentage (normalized to maximal concentration at the first time point, 30 min) ([1]; day 0.021): 100.00% | Percentage (normalized to maximal concentration at the first time point, 30 min) ([1]; day 0.042): 102.12% | Percentage (normalized to maximal concentration at the first time point, 30 min) ([1]; day 0.083): 104.03% | Percentage (normalized to maximal concentration at the first time point, 30 min) ([1]; day 0.125): 101.71% | Percentage (normalized to maximal concentration at the first time point, 30 min) ([1]; day 0.250): 93.90% | Percentage (normalized to maximal concentration at the first time point, 30 min) ([1]; day 1.000): 59.26% | Percentage (normalized to maximal concentration at the first time point, 30 min) ([1]; day 2.000): 56.66% | Percentage (normalized to maximal concentration at the first time point, 30 min) ([1]; day 3.000): 39.09% | Percentage (normalized to maximal concentration at the first time point, 30 min) ([1]; day 8.000): 22.21% | Percentage (normalized to maximal concentration at the first time point, 30 min) ([1]; day 10.000): 21.15% | Percentage (normalized to maximal concentration at the first time point, 30 min) ([1]; day 14.000): 21.41%
